In patent US20070287718A1 (priority 2003, published 2007):

Experiments:
Mcl-1 [1] = assay: Western blot, Mcl-1 protein levels in myeloma cell lines; type: cell-based
Hdm2 = assay: Western blot, Hdm2 levels in myeloma cells; type: cell-based
CTD of RNA polymerase II = assay: Western blot, phosphorylation of CTD of RNA polymerase II in myeloma cells; type: cell-based; details: 60 mM DRB
Source text: Arrow indicates cleaved form indicative of apoptosis.

MDN = assay: Induction of apoptosis by apo2.7 immunostaining; type: cell-based, human
Source text: (§1) The induction of apoptosis at day 3 by apo2.7 was investigated by immunostaining.

XG-1 = assay: Induction of apoptosis by apo2.7 immunostaining; type: cell-based, human
Source text: as §1

XG-6 = assay: Induction of apoptosis by apo2.7 immunostaining; type: cell-based, human
Source text: as §1

[2] = system: myeloma cell population (high expression of CD38); assay: Apoptosis in cells taken from a multiple myeloma patient (ex vivo); type: cell-based, human; set-up: dose or concentration left out as unconfirmed; details: […] μM CYC202, day 2, patient cells ex vivo
Source text: (§2) Myeloma cells were identified by their high expression of CD38.
(§3) Myeloma cells were identified by their high expression of CD38. The number of apoptotic cells in the myeloma cell population was of 46% whereas only 4% of the non myeloma cell population was induced on apoptosis.

[3] = system: non myeloma cell population; assay: as above; type: cell-based, human; set-up: dose or concentration left out as unconfirmed; details: […] μM CYC202, day 2, patient cells ex vivo
Source text: as §2, §3

[4] = system: multiple myeloma cell lines; assay: Apoptosis by TUNEL, flow cytometry; type: cell-based; details: 30 μM CYC202
Experimental: All cell lines were obtained from the DSMZ (Deutsche Sammlung von Mikroorganismen und Zellkulturen).
Cells were seeded onto 90 mm diameter plates. […] Cells were harvested at various time points after addition of the drug. After washing once in PBS, cells were fixed in ice-cold 70% v/v ethanol and stored for up to 2 weeks at −20° C. Cells were washed twice in PBS +1% w/v BSA to remove fixative and re-suspended in PBS containing 50 μg/ml propidium iodide and 50 μg/ml RnaseA. After incubation at room temperature for 20 min, cells were analysed using flow cytometry.
A Becton Dickinson LSR flow cytometer was used for these studies, in accordance with the manufacturers recommendations. […] Red fluorescence (575±26 nm) was acquired on a linear scale and pulse width analysis was used to exclude cell doublets and aggregates from the analysis. Cells with a DNA content of between 2 n and 4 n were designated as being in G1, S or G2/M phases of the cell cycle, as defined by the level of red fluorescence. […] The number of cells in each cell cycle compartment was expressed as a percentage of the total number of cells present. Analysis of apoptosis was determined using terminal deoxynucleotidyltransferase dUTP nick end labelling (TUNEL) using the APO-DIRECT kit from BD biosciences (catalog number 556381) according to the manufacturer's instructions.

Mcl-1 mRNA = assay: Real time PCR of Mcl-1 mRNA in LP-1 cells; type: cell-based; details: normalised to 28S rRNA
Mcl-1 [5] = assay: Western blotting of Mcl-1 expression, MDN cells; type: cell-based, human
Source text: (§4) The downregulation of Mcl-1 preceded the induction of apoptosis.

Mcl-1 [6] = assay: Western blotting of Mcl-1 expression, XG-1 cells; type: cell-based, human; details: XG-1, 30 μM, seven hours
Source text: as §4

Mcl-1 [7] = assay: Western blotting of Mcl-1 expression, XG-6 cells; type: cell-based, human; details: XG-6, 30 μM, seven hours
Source text: as §4

RNA polII on Ser-2 [8] = assay: Western blotting of RNA pol II phosphorylation, MDN cells; type: cell-based, human; details: 30 μM, seven hours
Source text: as §4

RNA polII on Ser-2 [9] = assay: Western blotting of RNA pol II phosphorylation, XG-1 cells; type: cell-based, human; details: XG-1, 30 μM, seven hours
Source text: as §4

RNA polII on Ser-2 [10] = assay: Western blotting of RNA pol II phosphorylation, XG-6 cells; type: cell-based, human; details: XG-6, 30 μM, seven hours
Source text: as §4

[11] = system: RNA polymerase II at the serine 2 position of the CTD; assay: Western blot, RNA polymerase II CTD phosphorylation in LP-1 cells; details: 30 μM CYC202
Cdk9/cyclin T1 = Cdk9/cyclin T1 (Homo sapiens, UniProt P50750); details: CDK 9/Cyclin T (McClue et al., 2002); cited from earlier work
Chain of Cdk9/cyclin T1 (P50750 whole entry, species assumed): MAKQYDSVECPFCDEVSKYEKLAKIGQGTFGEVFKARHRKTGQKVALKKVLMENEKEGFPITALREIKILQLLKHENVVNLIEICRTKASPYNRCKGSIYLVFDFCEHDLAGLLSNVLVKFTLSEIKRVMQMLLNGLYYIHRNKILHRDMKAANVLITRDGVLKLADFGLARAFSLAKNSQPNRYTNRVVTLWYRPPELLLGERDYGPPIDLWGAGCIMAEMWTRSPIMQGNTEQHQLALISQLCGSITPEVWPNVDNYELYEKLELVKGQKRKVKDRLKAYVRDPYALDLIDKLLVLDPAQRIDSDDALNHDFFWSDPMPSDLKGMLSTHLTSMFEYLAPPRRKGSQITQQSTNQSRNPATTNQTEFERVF
Chain of Cdk9/cyclin T1 (O60563 whole entry partner, species assumed): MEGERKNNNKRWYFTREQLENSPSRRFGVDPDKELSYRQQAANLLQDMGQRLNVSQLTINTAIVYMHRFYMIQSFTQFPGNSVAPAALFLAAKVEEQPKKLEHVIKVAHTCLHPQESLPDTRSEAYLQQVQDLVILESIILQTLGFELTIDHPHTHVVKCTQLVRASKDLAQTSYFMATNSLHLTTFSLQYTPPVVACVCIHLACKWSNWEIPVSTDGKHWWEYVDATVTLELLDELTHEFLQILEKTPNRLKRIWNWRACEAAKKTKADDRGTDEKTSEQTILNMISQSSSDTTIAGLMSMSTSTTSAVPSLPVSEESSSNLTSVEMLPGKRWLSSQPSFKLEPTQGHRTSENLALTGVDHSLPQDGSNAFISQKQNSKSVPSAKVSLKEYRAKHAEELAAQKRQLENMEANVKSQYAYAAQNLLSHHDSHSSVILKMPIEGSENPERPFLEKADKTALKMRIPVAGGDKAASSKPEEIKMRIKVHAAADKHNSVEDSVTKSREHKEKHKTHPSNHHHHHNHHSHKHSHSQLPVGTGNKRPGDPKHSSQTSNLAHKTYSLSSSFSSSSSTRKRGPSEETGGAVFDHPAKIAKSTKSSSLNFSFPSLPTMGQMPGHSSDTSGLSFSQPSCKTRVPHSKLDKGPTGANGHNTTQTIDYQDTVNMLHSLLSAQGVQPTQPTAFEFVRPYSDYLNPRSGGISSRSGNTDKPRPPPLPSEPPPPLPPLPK

SMILES: OC[C@H]1O[C@@H](n2cnc3cc(Cl)c(Cl)cc32)[C@H](O)[C@@H]1O [DRB, reference compound]
- Mcl-1 levels (Mcl-1 [1]; myeloma cells, 60 mM DRB): down regulates
- Hdm2 levels (Hdm2; myeloma cells, 60 mM DRB): down regulates
- phosphorylation of the CTD of RNA polymerase II (CTD of RNA polymerase II): inhibits phosphorylation

SMILES: CC[C@H](CO)Nc1nc(NCc2ccccc2)c2ncn(C(C)C)c2n1 (single isomer, unassigned) [CYC202, 2-(1-R-hydroxymethylpropylamino)-6-benzylamino-9-isopurine]
- % of apoptotic cells after 3 day treatment (MDN; 3 μM): 3%
- % of apoptotic cells after 3 day treatment (MDN; 6 μM): 5%
- % of apoptotic cells after 3 day treatment (MDN; 12 μM): 41%
- induction of apoptosis at day 3 (apo2.7) (MDN; 12 μM): significant and strong induction of apoptosis
- induction of apoptosis at day 3 (apo2.7) (XG-1; XG1, 30 μM): significant and strong induction of apoptosis
- % of apoptotic cells after 3 day treatment (XG-1; XG-1, 7.5 μM): 2%
- % of apoptotic cells after 3 day treatment (XG-1; XG-1, 30 μM): 70%
- % of apoptotic cells after 3 day treatment (XG-1; XG-1, […] μM): 18%
- % of apoptotic cells after 3 day treatment (XG-6; XG-6, 7.5 μM): 4%
- % of apoptotic cells after 3 day treatment (XG-6; XG-6, 30 μM): 74%
- induction of apoptosis at day 3 (apo2.7) (XG-6; XG-6, 30 μM): significant and strong induction of apoptosis
- % of apoptotic cells after 3 day treatment (XG-6; XG-6, […] μM): 15%
- number of apoptotic cells in the myeloma cell population [2]: 46%
- non myeloma cell population induced on apoptosis [3]: 4%
- induction of apoptosis (TUNEL) [4]: rapid apoptosis seen in the majority of cells by eight hours
- levels of Mcl-1 protein (Mcl-1 [1]; all cell lines studied, CYC202 treatment): rapidly reduced in all cell lines, by three hours
- levels of Mcl-1 mRNA by real-time PCR (Mcl-1 mRNA): reduced
- levels of Hdm2 (Hdm2; myeloma cell lines, CYC202 treatment): also reduced
- Mcl-1 expression (Mcl-1 [5]; 30 μM of CYC202, seven hours): total downregulation of Mcl-1
- Mcl-1 expression (Mcl-1 [5]; 6 or […] μM of CYC202, seven hours): decrease of Mcl-1 expression
- Mcl-1 expression (Mcl-1 [6]): strong downregulation of Mcl-1
- Mcl-1 expression (Mcl-1 [7]): strong downregulation of Mcl-1
- phosphorylation of RNA polII on Ser-2 (RNA polII on Ser-2 [8]): total downregulation
- phosphorylation of RNA polII on Ser-2 (RNA polII on Ser-2 [9]): total downregulation
- phosphorylation of RNA polII on Ser-2 (RNA polII on Ser-2 [10]): total downregulation
- dephosphorylation of RNA polymerase II at serine 2 of the CTD [11]: rapid dephosphorylation of RNA polymerase II at the serine 2 position of the CTD of RNA pol II, by one and a half hours

SMILES: CC[C@H](CO)Nc1nc(NCc2ccccc2)c2ncn(C(C)C)c2n1 (racemic) [roscovitine, 2-[(1-ethyl-2-hydroxyethyl)amino]-6-benzylamine-9-isopropylpurine]
- inhibition in vitro (Cdk9/cyclin T1): low μM concentrations
